# Data taken from BindingDB's records for doi:10.7270/Q27H1H0J (Srmlsc, 2008).
# Molecular target: T1, M1 family aminopeptidase (Plasmodium falciparum (isolate FcB1 / Columbia), UniProt O96935)
# T1 sequence (O96935 whole entry): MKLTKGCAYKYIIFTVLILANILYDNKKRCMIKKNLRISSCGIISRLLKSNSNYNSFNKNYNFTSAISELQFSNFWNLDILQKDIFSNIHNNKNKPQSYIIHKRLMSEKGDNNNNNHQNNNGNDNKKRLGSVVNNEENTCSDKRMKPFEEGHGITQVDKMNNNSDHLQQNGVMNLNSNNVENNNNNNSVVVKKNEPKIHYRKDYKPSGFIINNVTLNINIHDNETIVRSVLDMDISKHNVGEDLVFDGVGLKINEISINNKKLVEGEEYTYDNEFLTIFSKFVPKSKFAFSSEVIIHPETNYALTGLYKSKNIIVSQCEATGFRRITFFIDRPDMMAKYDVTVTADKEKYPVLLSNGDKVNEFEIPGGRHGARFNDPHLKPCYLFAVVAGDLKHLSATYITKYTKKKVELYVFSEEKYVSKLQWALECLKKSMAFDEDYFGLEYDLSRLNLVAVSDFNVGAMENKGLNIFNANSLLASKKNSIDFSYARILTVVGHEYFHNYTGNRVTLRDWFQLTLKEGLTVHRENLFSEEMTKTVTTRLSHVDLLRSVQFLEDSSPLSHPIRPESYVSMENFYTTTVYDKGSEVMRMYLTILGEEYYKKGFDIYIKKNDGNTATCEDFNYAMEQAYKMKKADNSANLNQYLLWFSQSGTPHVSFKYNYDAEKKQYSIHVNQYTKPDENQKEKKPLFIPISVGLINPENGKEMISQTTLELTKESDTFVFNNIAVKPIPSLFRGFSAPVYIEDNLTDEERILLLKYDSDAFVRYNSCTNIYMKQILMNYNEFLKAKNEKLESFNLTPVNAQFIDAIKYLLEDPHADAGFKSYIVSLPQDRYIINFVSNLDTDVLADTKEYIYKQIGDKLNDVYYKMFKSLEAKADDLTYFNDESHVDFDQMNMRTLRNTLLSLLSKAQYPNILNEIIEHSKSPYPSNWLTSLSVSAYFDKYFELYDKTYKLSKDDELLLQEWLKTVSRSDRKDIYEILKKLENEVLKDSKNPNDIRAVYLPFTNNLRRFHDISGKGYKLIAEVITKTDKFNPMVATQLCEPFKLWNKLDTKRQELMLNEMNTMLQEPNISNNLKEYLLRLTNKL
# Assay: malaria alanyl aminopeptidase activity blockers – biochemical, fluorogenic H-Leu-NHMec substrate, 1536-well (AID 1445)
row,Compound,IC50 [µM]
1,COc1cc(Br)c(C2c3c(-c4cccnc4)n[nH]c3OC(=N)C2C#N)cc1OC (stereo unspecified) [SMR000114618],44.6
2,O=C(Cn1cnc([N+](=O)[O-])n1)N/N=C/C1C=C(Cl)C=CC1=O (stereo unspecified) [SMR000312480],13.3
3,CCC(=O)N1N=C(C2C(=O)N(C)C(=O)N(C)C2=O)CC1c1ccccc1 (stereo unspecified),41.9
4,CCN1C(=O)/C(=N\NC(=O)c2cccs2)c2ccccc21 [MLS000760154],70.2
5,Cc1[nH]n(-c2ccccc2)c(=O)c1C=Nc1ccccc1O,12.8
6,"CCOC(=O)C(C=NC(N)=Nc1nc2ccccc2o1)C(=O)OCC [2-[[[amino-(1,3-benzoxazol-2-ylamino)methylidene]amino]methylidene]propanedioic acid diethyl ester]",79.2
7,Cc1ccc2c(c1C)Nc1c(c(=O)c1=O)N2 [SMR000459860],48.5
8,C=c1c(C#N)c2[nH]c(N)c(C#N)c(C)c-2c1=Cc1ccc(-c2ccccc2C(=O)O)o1 [SMR000277284],52.2
9,O=C1OC(C(C=Nc2cc(Cl)ccc2O)[N+](=O)[O-])c2ccccc21 (stereo unspecified) [3-[(E)-2-[(5-chloranyl-2-oxidanyl-phenyl)amino]-1-nitro-ethenyl]-3H-2-benzofuran-1-one],48.8
10,CCOC1=CC(/C=N/NC(=O)c2cccs2)C=C([N+](=O)[O-])C1=O (stereo unspecified) [MLS000698505],103
11,COc1ccc(-c2c/c(=N\CCCCCC(=O)O)c3cc(C)ccc3o2)cc1 [[2-(4-methoxyphenyl)-6-methyl-chromen-4-ylidene]-(6-oxidanyl-6-oxidanylidene-hexyl)azanium;perchlorate],7.22
12,"CCOc1cc(C2C3=C(CCCC3=O)N=C3CCCC(=O)C32)cc(Cl)c1O (stereo unspecified) [9-(3-Chloro-5-ethoxy-4-hydroxy-phenyl)-3,4,6,7,9,10-hexahydro-2H,5H-acridine-1,8-dione]",23.9
13,CCOC(=O)C1C(=O)C(=Cc2ccc(OCC(=O)O)c(OCC)c2)SC1=Nc1ccccc1 (stereo unspecified) [2-[4-[(Z)-(5-anilino-4-ethoxycarbonyl-3-oxo-2-thiophenylidene)methyl]-2-ethoxyphenoxy]acetic acid],60.2
14,CCOC(=O)C1C(=O)C(=Cc2ccc(OCC(=O)O)c(OC)c2)SC1=Nc1ccc(OC)cc1 (stereo unspecified) [2-[4-[(Z)-[4-ethoxycarbonyl-5-[(4-methoxyphenyl)amino]-3-oxidanylidene-thiophen-2-ylidene]methyl]-2-methoxy-phenoxy]ethanoic acid],87.3
15,CC(NNC(=O)c1cccc(Cl)c1)=C1C(=O)c2ccccc2C1=O,40.8
16,"O=C1NC(=S)NC(=O)C1N=Nc1ccc(-c2ccccc2)cc1[N+](=O)[O-] [5-[(2-nitro-4-phenylphenyl)hydrazinylidene]-2-sulfanylidene-1,3-diazinane-4,6-dione]",10.5
17,"CC1=CC([N+](=O)[O-])=CC(/C=N/NC(=O)C2COc3ccccc3O2)C1=O (stereo unspecified) [N'-[(E)-(5-methyl-3-nitro-6-oxocyclohexa-2,4-dien-1-ylidene)methyl]-2,3-dihydro-1,4-benzodioxine-3-carbohydrazide]",3.05
18,CS(=O)(=O)Nc1nc2n(n1)C(c1ccccc1)CC(c1ccc(Br)cc1)=N2 (stereo unspecified),45.3
19,"COc1cc(C=Nn2c(O)csc2=S)cc(Br)c1O [3-[[(Z)-(3-bromo-5-methoxy-4-oxo-1-cyclohexa-2,5-dienylidene)methyl]amino]-2-sulfanylidene-4-thiazolidinone]",107
20,"COC1=CC(C=NNC(=O)C(Cc2c[nH]c3ccccc23)NC(=O)OCC(C)C)C=C([N+](=O)[O-])C1=O (stereo unspecified) [2-methylpropyl N-[3-(1H-indol-3-yl)-1-[2-[(E)-(3-methoxy-5-nitro-4-oxidanylidene-cyclohexa-2,5-dien-1-ylidene)methyl]hydrazinyl]-1-oxidanylidene-propan-2-yl]carbamate]",16.7
21,Cc1ccc(O)c(NC=C2C(=O)c3ccccc3C2=O)c1 [MLS000104939],71.9
22,Cc1ccc(-c2csc(-n3[nH]c(C)c(N=Nc4ccccc4O)c3=O)n2)cc1,3.37
23,NC(=NNC=c1ccc(=C2C=CC(=O)C(C(=O)O)=C2)o1)N[N+](=O)[O-] [5-(5-{2-[amino(nitroimino)methyl]carbonohydrazonoyl}-2-furyl)-2-hydroxybenzoic acid],10.2

row,Compound,IC50 [µM]
1,CCOC(=O)C1C(=O)C(=Cc2ccc(OCC(=O)O)c(OCC)c2)SC1=Nc1ccc(C)cc1 (stereo unspecified) [(2-ethoxy-4-{[4-(ethoxycarbonyl)-5-[(4-methylphenyl)amino]-3-oxo-2(3H)-thienylidene]methyl}phenoxy)acetic acid],48.6
2,"C=c1[nH]n(-c2nnc(C)c(=O)[nH]2)c(=O)c1=Cc1ccc(N(CC)CC)cc1 [3-{4-[1-(4-Diethylamino-phenyl)-meth-(Z)-ylidene]-3-methyl-5-oxo-4,5-dihydro-pyrazol-1-yl}-6-methyl-4H -[1,2,4]triazin-5-one]",42.6
3,COc1ccccc1-c1nnc(SCC(=O)C(C#N)c2nc3ccccc3[nH]2)n1C1CCCCC1 (stereo unspecified) [SMR000067321],52.2
4,C#CCOCCOCCOCCNc1nc(N2CCN(C(=O)C(Cc3cc4ccccc4[nH]3)n3cc(C(N)C(C)CC)nn3)CC2)nc(N2CCN(C(=O)C(Cc3cc4ccccc4[nH]3)n3cc(C(N)C(C)CC)nn3)CC2)n1 (stereo unspecified) [SMR000391068],72
5,"O=C1NC(=S)NC(=O)C1N=Nc1cc2c(cc1[N+](=O)[O-])OCO2 [5-[(6-nitro-1,3-benzodioxol-5-yl)hydrazinylidene]-2-sulfanylidene-1,3-diazinane-4,6-dione]",26.9
6,COC(=O)c1ccc(COc2ccccc2CN=Nc2cccc(C(=O)O)c2)cc1 [MLS000775447],47
7,CC(NNC(=O)c1ccccc1O)=C1C(=O)c2ccccc2C1=O [MLS000523164],12.8
8,"COC1=CC(C=NNC(=O)C(Cc2c[nH]c3ccccc23)NC(=O)OCc2ccccc2)C=C([N+](=O)[O-])C1=O (stereo unspecified) [benzyl N-[3-(1H-indol-3-yl)-1-[2-[(E)-(3-methoxy-5-nitro-4-oxocyclohexa-2,5-dien-1-ylidene)methyl]hydrazinyl]-1-oxopropan-2-yl]carbamate]",4.75
9,CCOc1ccc(-n2c(O)c(CN=Nc3nnc(C)c(=O)[nH]3)c3ccccc3c2=O)cc1,20.9
10,"COC1=CC(/C=C(\C#N)c2nc3ccc(C)cc3[nH]2)C=C([N+](=O)[O-])C1=O (stereo unspecified) [(2Z,3E)-3-(3-methoxy-5-nitro-4-oxocyclohexa-2,5-dien-1-ylidene)-2-(5-methyl-1,3-dihydrobenzimidazol-2-ylidene)propanenitrile]",16.2
11,"O=C1Nc2ccccc2SC1C=NCc1ccccc1Cl (stereo unspecified) [2-{[(2-chlorobenzyl)amino]methylene}-2H-1,4-benzothiazin-3(4H)-one]",5.63
12,CCOC(=O)C1C(=O)C(=Cc2ccc(OCC(=O)O)c(OCC)c2)SC1=Nc1ccc(OC)cc1 (stereo unspecified) [MLS000704394],36.3
13,Cc1c(N2C(=O)C(=O)C(C(=O)c3ccc(Br)cc3)C2c2cccnc2)c(=O)n(-c2ccccc2)n1C (stereo unspecified) [MLS000724383],38.1
14,C#CCOCCOCCOCCNc1nc(N2CCN(C(=O)[C@H](Cc3cc4ccccc4[nH]3)n3cc([C@@H](N)C(C)CC)nn3)CC2)nc(N2CCN(C(=O)[C@H](Cc3cc4ccccc4[nH]3)n3cc([C@@H](N)CC(C)C)nn3)CC2)n1 (stereo partly specified) [SMR000391064],54.6
15,O=C(O)Cc1sc(N[N-][CH+]c2ccc(-c3ccc(Cl)c([N+](=O)[O-])c3)o2)nc1O [MLS000689975],54.1
16,Cc1c(N2C(=O)C(=O)C(C(=O)c3ccc(Cl)cc3)C2c2ccccc2)c(=O)n(-c2ccccc2)n1C (stereo unspecified) [MLS000331609],62.1
17,"COC(=O)CN1C(=O)C2(c3ccccc31)c1c(-c3cccs3)n[nH]c1OC(=N)C2C#N (stereo unspecified) [methyl (6'-amino-5'-cyano-2-oxo-3'-thien-2-yl-1'H-spiro[indole-3,4'-pyrano[2,3-c]pyrazol]-1(2H)-yl)acetate]",36.7
18,N#C/C(=C\C1C=CC(=O)C([N+](=O)[O-])=C1)c1nc2ccccc2s1 (stereo unspecified),33.9
19,"COc1ccc(OC)c(C2C(C(=O)Nc3cccnc3)=C(C)N=C3CCCC(=O)C32)c1 (stereo unspecified) [4-(2,5-dimethoxyphenyl)-2-methyl-5-oxo-N-3-pyridinyl-1,4,5,6,7,8-hexahydro-3-quinolinecarboxamide]",52.9
20,COC1=CC(/C=C(\C#N)c2nc3ccccc3s2)C=C([N+](=O)[O-])C1=O (stereo unspecified) [MLS000682120],11
21,Oc1ccc(O)n1-c1nc2n(n1)C(c1ccccc1)CC(c1ccc(Br)cc1)=N2 (stereo unspecified) [MLS000037189],69.7
22,"O=C1C([N+](=O)[O-])=CC=CC1/C=N/NC(=O)C1COc2ccccc2O1 (stereo unspecified) [N'-[(E)-(5-nitro-6-oxo-1-cyclohexa-2,4-dienylidene)methyl]-2,3-dihydro-1,4-benzodioxin-3-carbohydrazide]",31.4
23,O=C1CC(c2ccco2)CC(=O)C1=CNc1cc(Cl)ccc1O (stereo unspecified) [MLS000037985],5.58
